In this test the test system is PANC-1 cells. The experiment in a line: cell viability assay in PANC-1 cells (compound alone, + 100 ng/ml TNFa, + 300 ng/ml TRAIL). Type of test: cell-based.
Setting [1] is: Homo sapiens, PANC-1, compound alone, Tables 6-10, read-out: IC50 (μM) in cell viability assay in PANC-1 cells: Compound alone.
Where [2] appears, read: with 100 ng/ml TNFa, Tables 6-10, read-out: IC50 (μM) in cell viability assay in PANC-1 cells: Compound + 100 ng/ml TNFa.
Setting [3] is: with 300 ng/ml TRAIL, Tables 6-10, read-out: IC50 (μM) in cell viability assay in PANC-1 cells: Compound + 300 ng/ml TRAIL.
Setting [4] is: Homo sapiens, PANC-1, compound alone, Tables 15-18, read-out: IC50 (uM) in cell viability assay in PANC-1 cells: Cmpnd alone.
[5] abbreviates: with 100 ng/ml TNFa, Tables 15-18, read-out: IC50 (uM) in cell viability assay in PANC-1 cells: Cmpnd + 100 ng/ml TNFa.
[6] abbreviates: with 300 ng/ml TRAIL, Tables 15-18, read-out: IC50 (uM) in cell viability assay in PANC-1 cells: Cmpnd + 300 ng/ml TRAIL.

Like-named read-outs stand apart in the source and are kept apart here.

For `CN[C@@H](C)C(=O)NC(C(=O)N[C@@H](CCNC(=O)CCc1cn([C@H]2C[C@@H](C(=O)N[C@@H]3CCCc4ccccc43)N(C(=O)[C@@H](NC(=O)[C@H](C)NC)C(C)(C)C)C2)nn1)C(=O)N[C@H](C)C(C)C)C(C)(C)C` (stereo partly shown) [Compound 198], the IC50 is > 1 µM under setting [1], 0.109 µM under setting [2] and 0.069 µM under setting [3].

Regarding `CN[C@@H](C)C(=O)N[C@@H](CCCCNC(=O)C[C@H](NC(=O)[C@H](C)NC)C(=O)N1CCC[C@H]1C(=O)N[C@@H]1CCCc2ccccc21)C(=O)N1CCC[C@H]1C(=O)N[C@@H]1CCCc2ccccc21` [Compound 199], the IC50 under setting [1] was > 1 µM, the IC50 under setting [2] came to 0.046 µM and the IC50 under setting [3] worked out at 0.074 µM.

On to `CN[C@@H](C)C(=O)N[C@@H](CC(=O)NCC[C@H](NC(=O)[C@@H](NC(=O)[C@H](C)NC)C(C)(C)C)C(=O)N[C@@H]1CCCc2ccccc21)C(=O)N1CCC[C@H]1C(=O)N[C@@H]1CCCc2ccccc21` [Compound 200], for which the IC50 by setting is: under setting [1], > 1 µM; under setting [2], 0.046 µM; under setting [3], 0.084 µM.

Consider `CN[C@@H](C)C(=O)N[C@H](C(=O)N[C@@H](CCNC(=O)c1ccc(CCc2ccc(C(=O)N[C@@H]3C[C@@H](C(=O)N[C@@H]4CCCc5ccccc54)N(C(=O)[C@@H](NC(=O)[C@H](C)NC)C(C)(C)C)C3)cc2)cc1)C(=O)NC(C)C(C)C)C(C)C` (stereo partly shown) [Compound 201], for which the IC50 under setting [1] is > 1 µM, the IC50 under setting [2] turned out to be 0.027 µM and the IC50 under setting [3] is 0.057 µM.

Take `CN[C@@H](C)C(=O)NC(C(=O)N[C@@H](CCC(=O)NCc1cn([C@H]2C[C@@H](C(=O)N[C@@H]3CCCc4ccccc43)N(C(=O)[C@@H](NC(=O)[C@H](C)NC)C(C)(C)C)C2)nn1)C(=O)N[C@H](C)C(C)C)C(C)C` (stereo partly shown) [Compound 202]: the IC50 was > 1 µM under setting [1], 0.679 µM under setting [2] and 0.674 µM under setting [3].

Consider `CN[C@@H](C)C(=O)NC(C(=O)N[C@@H](CCC(=O)NCCc1cn([C@H]2C[C@@H](C(=O)N[C@@H]3CCCc4ccccc43)N(C(=O)[C@@H](NC(=O)[C@H](C)NC)C(C)(C)C)C2)nn1)C(=O)N[C@H](C)C(C)C)C(C)C` (stereo partly shown) [Compound 203], for which the IC50 is > 1 µM under setting [1], 0.683 µM under setting [2] and 0.616 µM under setting [3].

For the compound `CN[C@@H](C)C(=O)NC(C(=O)N[C@@H](CCNC(=O)CCc1cn([C@H]2C[C@@H](C(=O)N[C@@H]3CCCc4ccccc43)N(C(=O)[C@@H](NC(=O)[C@H](C)NC)C3CCCCC3)C2)nn1)C(=O)N[C@H](C)C(C)C)C(C)C` (stereo partly shown) [Compound 204], the IC50 runs as follows: under setting [1], > 1 µM; under setting [2], 0.392 µM; under setting [3], 0.564 µM.

In the case of `CN[C@@H](C)C(=O)N[C@H](C(=O)N1C[C@@H](n2cc(CCC(=O)N[C@@H]3CC(C(=O)N[C@H](C)c4ccccc4)N(C(=O)C(NC(=O)[C@H](CO)NC)C(C)(C)C)C3)nn2)C[C@H]1C(=O)N[C@@H]1CCCc2ccccc21)C(C)(C)C` (stereo partly shown) [Compound 205], the IC50 by setting is: under setting [1], > 1 µM; under setting [2], 0.04 µM; under setting [3], 0.059 µM.

Regarding `CN[C@@H](C)C(=O)N[C@H](C(=O)N1C[C@@H](OC(=O)c2cccc(C(=O)O[C@H]3C[C@@H](C(=O)N[C@H]4CCCc5ccccc54)N(C(=O)[C@@H](NC(=O)[C@H](C)NC)C(C)(C)C)C3)c2)C[C@H]1C(=O)N[C@H]1CCCc2ccccc21)C(C)(C)C` [Compound 206], the IC50 under setting [1] is > 1 µM.

Consider `CN[C@@H](C)C(=O)N[C@@H](CCCCNC(=O)c1cccc(C(=O)NCCCC[C@H](NC(=O)[C@H](C)NC)C(=O)N2CCC[C@H]2Cn2nnnc2Sc2ccccc2)c1)C(=O)N1CCC[C@H]1Cn1nnnc1Sc1ccccc1` [Compound 207], for which the IC50 is > 1 µM under setting [1], 0.263 µM under setting [2] and 0.398 µM under setting [3].

As to `CN[C@@H](C)C(=O)N[C@@H](CCCCNC(=O)c1cc(C(=O)NCCCC[C@H](NC(=O)[C@H](C)NC)C(=O)N2CCC[C@H]2Cn2nnnc2Sc2ccccc2)[nH]n1)C(=O)N1CCC[C@H]1Cn1nnnc1Sc1ccccc1` [Compound 208], the IC50 by setting is: under setting [1], > 1 µM; under setting [2], 0.614 µM; under setting [3], > 1 µM.

Regarding `CN[C@@H](C)C(=O)N[C@H](C(=O)N1CCCC1C(=O)N[C@H](COCC#CC#CCOC[C@@H](NC(=O)[C@H](C)NC(=O)[C@H](NC(=O)[C@@H](C)NC)C1CCCCC1)C(C)C)C1CCCCC1)C(C)(C)C` (stereo partly shown) [Compound 209], the IC50 turned out to be 0.0007 µM under setting [2] and 0.0007 µM under setting [3].

Turning to `C#CC[C@H](NC(=O)[C@H](C)NC)C(=O)N1C[C@@H](NC(=O)c2cccc(C(=O)N[C@H]3C[C@@H](C(=O)N[C@@H]4CCCc5ccccc54)N(C(=O)[C@@H](NC(=O)[C@H](C)NC)C(C)(C)C)C3)c2)C[C@H]1C(=O)N[C@@H]1CCCc2ccccc21` [Compound H-5], the IC50 under setting [4] is > 1 µM, the IC50 under setting [5] is 0.008 µM and the IC50 under setting [6] is 0.009 µM.

As to `C#CC[C@H](NC(=O)[C@H](C)NC)C(=O)N1C[C@@H](NC(=O)c2cc(N)cc(C(=O)N[C@H]3C[C@@H](C(=O)N[C@@H]4CCCc5ccccc54)N(C(=O)[C@@H](NC(=O)[C@H](C)NC)C(C)(C)C)C3)c2)C[C@H]1C(=O)N[C@@H]1CCCc2ccccc21` [Compound H-6], the IC50 by setting is: under setting [4], > 1 µM; under setting [5], 0.0229 µM; under setting [6], 0.0611 µM.

For `CN[C@@H](C)C(=O)N[C@H](C(=O)N1CCCC1C(=O)N[C@H](COCC#CC#CCOC[C@@H](NC(=O)[C@H](C)NC(=O)[C@H](NC(=O)[C@@H](C)NC)C1CCCCC1)C(C)C)C1CCCCC1)C(C)(C)C` (stereo partly shown) [Compound H-7], the IC50 under setting [4] was > 1 µM, the IC50 under setting [5] was 0.0007 µM and the IC50 under setting [6] turned out to be 0.0007 µM.

For the compound `CN[C@@H](C)C(=O)N[C@H](C(=O)N1CCCC1C(=O)N[C@H](COCC#CC#CCOC[C@@H](NC(=O)[C@H](C)NC(=O)[C@H](NC(=O)[C@@H](CO)NC)C1CCCCC1)C(C)C)C1CCCCC1)C(C)(C)C` (stereo partly shown) [Compound H-8], the IC50 is, setting by setting: under setting [4], > 1 µM; under setting [5], 0.017 µM; under setting [6], 0.033 µM.

For `CC[C@@H](NC)C(=O)N[C@@H](C(=O)N[C@@H](C)C(=O)N[C@H](COCC#CC#CCOC[C@@H](NC(=O)C1CCCN1C(=O)[C@@H](NC(=O)[C@H](C)NC)C(C)(C)C)C1CCCCC1)C(C)C)C1CCCCC1` (stereo partly shown) [Compound H-9], the IC50 is > 1 µM under setting [4], 0.005 µM under setting [5] and 0.004 µM under setting [6].

As to `CN[C@@H](C)C(=O)N[C@H](C(=O)N1C[C@@H](NC(=O)c2ccc3cc(C(=O)NCC[C@H](NC(=O)[C@@H](NC(=O)[C@H](CO)NC)C4CCCCC4)C(=O)N[C@H](C)C(C)C)ccc3c2)C[C@H]1C(=O)N[C@@H]1CCCc2ccccc21)C(C)(C)C` [Compound H-10], the IC50 was > 1 µM under setting [4], 0.001 µM under setting [5] and 0.0009 µM under setting [6].

As for `CC[C@H](NC)C(=O)N[C@H](C(=O)N[C@@H](CCNC(=O)c1ccc2cc(C(=O)N[C@H]3C[C@@H](C(=O)N[C@@H]4CCCc5ccccc54)N(C(=O)[C@@H](NC(=O)[C@H](C)NC)C(C)(C)C)C3)ccc2c1)C(=O)N[C@H](C)C(C)C)C1CCCCC1` [Compound H-11], the IC50 under setting [4] is > 1 µM.

On to `CN[C@@H](C)C(=O)N[C@@H](CCCCNC(=O)CCCCCCC(=O)NCCCC[C@H](NC(=O)[C@H](C)NC)C(=O)N1CCC[C@H]1C(=O)N[C@@H]1CCCc2ccccc21)C(=O)N1CCC[C@H]1C(=O)N[C@@H]1CCCc2ccccc21` [Compound P2-34], for which the IC50 was > 1 µM under setting [4], 0.04 µM under setting [5] and 0.064 µM under setting [6].

Consider `CN[C@@H](C)C(=O)NC(C(=O)N1CCC[C@H]1C(=O)NC1CCCc2ccccc21)c1ccc(CCc2ccc([C@H](NC(=O)[C@H](C)NC)C(=O)N3CCC[C@H]3C(=O)NC3CCCc4ccccc43)cc2)cc1` (stereo partly shown) [Compound P2-35], for which the IC50 runs as follows: under setting [4], > 1 µM; under setting [5], 0.007 µM; under setting [6], 0.007 µM.

Consider `CN[C@@H](C)C(=O)N[C@@H](CCCCNC(=O)c1cccc(C(=O)NCCCC[C@H](NC(=O)[C@H](C)NC)C(=O)N2C[C@@H](Oc3ccccc3)C[C@H]2C(=O)N[C@@H]2CCCc3ccccc32)c1)C(=O)N1C[C@@H](Oc2ccccc2)C[C@H]1C(=O)N[C@@H]1CCCc2ccccc21` [Compound P2-36], for which the IC50 by setting is: under setting [4], > 1 µM; under setting [5], 0.079 µM; under setting [6], 0.09 µM.

Take `CN[C@@H](C)C(=O)N[C@@H](CCCCNC(=O)NCCCC[C@H](NC(=O)[C@H](C)NC)C(=O)N1C[C@@H](Oc2ccccc2)C[C@H]1C(=O)N[C@@H]1CCCc2ccccc21)C(=O)N1C[C@@H](Oc2ccccc2)C[C@H]1C(=O)N[C@@H]1CCCc2ccccc21` [Compound P2-37]: the IC50 by setting is: under setting [4], > 1 µM; under setting [5], 0.174 µM; under setting [6], 0.527 µM.

For `CN[C@@H](C)C(=O)N[C@@H](Cc1ccc(NC(=O)Nc2ccc(C[C@H](NC(=O)[C@H](C)NC)C(=O)N3CCC[C@H]3C(=O)N[C@@H]3CCCc4ccccc43)cc2)cc1)C(=O)N1CCC[C@H]1C(=O)N[C@@H]1CCCc2ccccc21` [Compound P2-38], the IC50 is > 1 µM under setting [4], 0.021 µM under setting [5] and 0.037 µM under setting [6].

For the compound `CN[C@@H](C)C(=O)N[C@@H](CCNC(=O)NCC[C@H](NC(=O)[C@H](C)NC)C(=O)N1CCC[C@H]1C(=O)N[C@@H]1CCCc2ccccc21)C(=O)N1CCC[C@H]1C(=O)N[C@@H]1CCCc2ccccc21` [Compound P2-39], the IC50 is > 1 µM under setting [4], 0.349 µM under setting [5] and 0.225 µM under setting [6].

With `CN[C@@H](C)C(=O)N[C@@H](CC(=O)NCCNC(=O)C[C@H](NC(=O)[C@H](C)NC)C(=O)N1CCC[C@H]1C(=O)N[C@@H]1CCCc2ccccc21)C(=O)N1CCC[C@H]1C(=O)N[C@@H]1CCCc2ccccc21` [Compound P2-40], the IC50 by setting is: under setting [4], > 1 µM; under setting [5], 0.19 µM; under setting [6], 0.25 µM.
